Reference: patent US20230049572A1, “FORMULATION, COMPOSITION OR FOODSTUFF ADDITIVES FOR THE MODIFICATION OF GLYCEMIC RESPONSE METHODS OF MANUFACTURING AND USING THE SAME” (HOOW FOODS PTE. LTD., priority 2019, published 2023)
Where two headings read alike, the source gives them in different places.

Columns and labels:
[1] = per dose / per meal; cited from earlier work
[2] = biological target: T1, bakers yeast a-glucosidase (Saccharomyces cerevisiae, UniProt P53341); assay: In vitro flavonoid inhibition of alpha-glucosidase (pNPG); format: biochemical
T1 construct: purchased Sigma-Aldrich
T1 sequence (P53341 whole entry): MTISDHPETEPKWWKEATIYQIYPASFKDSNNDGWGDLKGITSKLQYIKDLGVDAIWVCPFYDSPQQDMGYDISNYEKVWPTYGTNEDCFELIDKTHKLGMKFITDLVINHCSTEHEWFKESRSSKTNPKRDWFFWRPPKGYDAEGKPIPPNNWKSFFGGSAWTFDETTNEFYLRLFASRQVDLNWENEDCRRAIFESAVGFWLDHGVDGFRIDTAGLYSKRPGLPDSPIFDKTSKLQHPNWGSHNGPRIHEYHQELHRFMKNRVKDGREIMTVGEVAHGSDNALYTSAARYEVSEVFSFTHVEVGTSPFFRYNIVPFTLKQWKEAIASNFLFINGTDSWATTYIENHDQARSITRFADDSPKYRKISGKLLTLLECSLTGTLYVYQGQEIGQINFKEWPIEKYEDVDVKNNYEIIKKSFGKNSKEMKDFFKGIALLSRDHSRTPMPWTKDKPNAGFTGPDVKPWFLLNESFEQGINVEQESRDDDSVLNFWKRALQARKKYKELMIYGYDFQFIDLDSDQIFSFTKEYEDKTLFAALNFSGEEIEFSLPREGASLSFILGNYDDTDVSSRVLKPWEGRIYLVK
Protocol: The alpha-glucosidase inhibition was determined using purified alpha-glucosidase from yeast. An alpha-glucosidase reaction mixture contained 2.9 mM p-nitrophenyl-α-d-glucopyranoside (pNPG) (Sigma-Aldrich), 0.25 ml of flavonoid in DMSO and 0.6 U/ml of bakers yeast a-glucosidase (Sigma-Aldrich) in sodium phosphate buffer, pH 6.9. […] The reaction mixtures were incubated at 25° C. for 5 min, after which the reaction was stopped by boiling for 2 min. Absorbance of the resulting p-nitrophenol (pNP) were spectrophotometry determined at 405 nm and was considered directly proportional to the activity of the enzyme. Glucosidase activity inhibition was determined as percentage of control as follows:
In order to eliminate background readings, the absorbance of the flavenoid without substrate and enzyme was subtracted from absorbance of the flavonoid and substrate mixture as follows: Corrected A405 test samples=A405 flavonoid and substrate—A405 flavonoid alone (background).
The activity in controls (with a-glucosidase but without inhibitor) was considered to be 100%. […] Different flavonoids were compared on the basis of their ICso values estimated from the dose response curves.

alpha amylase = assay: Inhibition of alpha amylase (similar studies); format: biochemical
[3] = pNPG 2.9 mM, pH 6.9, 25° C., 5 min, read-out: IC50, inhibition of yeast alpha-glucosidase

SMILES | IC50 [2] [µM] | enzyme inhibition (in words) [2] | inhibition of amylase (in words) (alpha amylase) | other results
OC[C@H]1NC[C@H](O)[C@@H](O)[C@@H]1O [1-DNJ, 1-deoxynojirimycin] |  |  |  | upper efficacy limit / saturation dose above which no further reduction in glycemic response is obtained [1]: 250 mg
O=c1cc(-c2ccc(O)cc2)oc2cc(O)cc(O)c12 [Apigenin] | 90 |  |  | 
O=c1cc(-c2ccccc2)oc2cc(O)c(O)c(O)c12 [Baicalein] | 58 |  |  | 
O=c1cc(-c2ccccc2)oc2cc(O)cc(O)c12 [Chrysin] |  |  |  | inhibition at 200 µM ([2]; read-out: inhibition of yeast alpha-glucosidase at fixed concentration): < 20%
O=C1c2c(O)cc(O)cc2O[C@H](c2cc(O)c(O)c(O)c2)[C@H]1O [Dihydromyricetin, (2R,3R)-3,5,7-Trihydroxy-2-(3,4,5-trihydroxyphenyl)-2,3-dihydrochromen-4-one] | 4 | powerful enzyme inhibitors | effective at inhibiting amylase | 
O=c1cc(-c2ccc(O)c(O)c2)oc2cc(O)cc(O)c12 [Luteolin] |  |  |  | IC50 [2, 3]: 35 µM
O=c1c(O)c(-c2cc(O)c(O)c(O)c2)oc2cc(O)cc(O)c12 [Myricetin, 3,5,7-Trihydroxy-2-(3,4 trihydroxyphenyl)-4-chromenone] | 3.6 | powerful enzyme inhibitors | effective at inhibiting amylase | 
O=C(CCc1ccc(O)cc1)c1c(O)cc(O)cc1O [Phloretin] |  |  |  | IC50 [2, 3]: 96 µM
O=c1c(O)c(-c2ccc(O)c(O)c2)oc2cc(O)cc(O)c12 [Quercetin, 2-(3,4-dihydroxyphenyl)-3,5,7-trihydroxy-4H-chromen-4-one] |  | powerful enzyme inhibitors | effective at inhibiting amylase | 
